Reference: patent publication US7034056B2, “Aryl and biaryl compounds having MCH modulatory activity” (Pharmacopeia Drug Discovery, inc., priority 2001, dated 2006)
Like-named read-outs stand apart in the source and are kept apart here.

Target: T1, hMCHR (MCH receptor) (Homo sapiens, UniProt Q99705)
T1 construct: (or internally produced); host or cells: CHO (Chinese hamster ovary) cells, membrane preparation
Assay: MCH Assay PCOP Protocol ([125I]-MCH SPA binding to hMCHR-CHO membranes);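 as to Activity (Ki range): A 0.4–50 nM B 51–500 nM C 501–2500 nM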
How it was run: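 SPA binding with 10 μg hMCHR-CHO membranes and WGA-SPA beads in 25 mM HEPES pH 7.4, 10 mM NaCl, 10 mM MgCl2, 5 mM MnCl2, 0.1% BSA.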

[1] = [125I]-MCH binding to hMCHR-CHO membranes, class symbols for ranges of Ki, read-out: Activity (Ki range)
[2] = [125I]-MCH 0.5 nM, hMCHR-CHO membranes, read-out: Activity (ranges of Ki values)
[3] = [125I]-MCH SPA binding, hMCHR-CHO membranes, Ki class ranges, read-out: Activity (range of Ki)

T1 sequence (Q99705 whole entry): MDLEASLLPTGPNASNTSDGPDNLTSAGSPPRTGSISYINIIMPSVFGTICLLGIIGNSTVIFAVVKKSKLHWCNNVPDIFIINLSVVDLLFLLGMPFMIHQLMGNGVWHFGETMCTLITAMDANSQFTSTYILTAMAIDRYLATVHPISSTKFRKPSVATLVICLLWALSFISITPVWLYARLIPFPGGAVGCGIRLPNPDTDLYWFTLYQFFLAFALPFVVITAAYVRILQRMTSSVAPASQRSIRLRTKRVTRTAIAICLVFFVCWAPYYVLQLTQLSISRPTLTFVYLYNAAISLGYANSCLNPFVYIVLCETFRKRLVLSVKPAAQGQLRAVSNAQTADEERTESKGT

Row | Ki [1] | Ki [2] | SMILES | other results
1 | 501 to 2500 nM | – | O=C(NCC(CCNC1CCCC1)c1ccc(-c2cc(C(F)(F)F)cc(C(F)(F)F)c2)cc1)Nc1cc(Cl)cc(Cl)c1 (centres unmarked) [Example 253] | –
2 | 501 to 2500 nM | – | O=C(NCC(CCN1CCc2c([nH]c3ccccc23)C1)c1ccc(Cl)c(Cl)c1)c1cc(C(F)(F)F)cc(C(F)(F)F)c1 (centres unmarked) [Example 397] | –
3 | 501 to 2500 nM | – | O=S(=O)(NCC(CCNCCc1c[nH]c2ccccc12)c1cccc(F)c1)c1ccc(Cl)c(Cl)c1 (centres unmarked) [Example 339] | –
4 | 501 to 2500 nM | – | O=C(NCC(CCN1CCC(N2CCCCC2)CC1)c1ccc(Cl)c(Cl)c1)Nc1cc(Cl)ccc1Cl (centres unmarked) [Example 360] | –
5 | 501 to 2500 nM | – | Cc1cccc(C(CCNCCCN(C)C)CNC(=O)Nc2cc(C(F)(F)F)cc(C(F)(F)F)c2)c1 (centres unmarked) [Example 347] | –
6 | 51 to 500 nM | – | COc1ccccc1-c1ccc(C(CCNCCCN(C)C)CNC(=O)Nc2cc(Cl)cc(Cl)c2)cc1 (centres unmarked) [Example 252] | –
7 | – | 0.4 to 50 nM | CN(C)CCC(CNC(=O)Nc1cc(Cl)cc(Cl)c1)c1ccc(-c2cccc(C(N)=O)c2)cc1 (centres unmarked) [Example 38] | –
8 | 51 to 500 nM | – | O=C(NCC(CCN1CCCC1)c1ccc(Cl)c(Cl)c1)Nc1ccc(Cl)c(Cl)c1 (centres unmarked) [Example 287] | –
9 | – | 51 to 500 nM | CN(C)CCC(CNC(=O)Nc1cc(Cl)cc(Cl)c1)c1ccc(-c2ccncc2)cc1 (centres unmarked) [Example 39] | –
10 | – | 0.4 to 50 nM | N#Cc1cccc(-c2ccc(C(CCNC3CC3)CNC(=O)Nc3ccc(F)cc3)cc2)c1 (centres unmarked) [Example 59] | –
11 | – | 501 to 2500 nM | Cc1ccc(C(CCN2CCC(NC(=O)c3ccno3)C2)CNC(=O)Nc2cc(Cl)cc(Cl)c2)cc1 (centres unmarked) [Example 202] | –
12 | 501 to 2500 nM | – | O=C(NCc1cc(C(F)(F)F)cc(C(F)(F)F)c1)C(CCNCCCn1ccnc1)c1ccc(Cl)c(Cl)c1 (centres unmarked) [Example 388] | –
13 | – | 501 to 2500 nM | CNCCC(CNC(=O)c1ccc(F)c(F)c1)c1ccc(-c2cccc(C#N)c2)cc1 (racemic) [Example 24, (R,S)-N-[2-(3′-Cyano-biphenyl-4-yl)-4-methylamino-butyl]-3,4-difluoro-benzamide] | –
14 | 51 to 500 nM | – | O=C(NCC(CCNC1CCCC1)c1ccc(Cl)cc1)Nc1cc(Cl)cc(Cl)c1 (centres unmarked) [Example 267] | –
15 | – | 501 to 2500 nM | CC(=O)NC1CCN(CCC(CNC(=O)Nc2cc(Cl)cc(Cl)c2)c2ccc(Cl)c(Cl)c2)C1 (centres unmarked) [Example 210] | –
16 | – | 51 to 500 nM | COc1cc(CNCCC(CNC(=O)Nc2cc(Cl)cc(Cl)c2)c2ccc(Cl)c(Cl)c2)cc(OC)c1OC (centres unmarked) [Example 129] | –
17 | 501 to 2500 nM | – | CN1CCCC1CCNCCC(CNC(=O)Nc1ccc(Cl)c(Cl)c1)c1ccc(Cl)c(Cl)c1 (centres unmarked) [Example 298] | –
18 | – | 501 to 2500 nM | CN(C)CCCNCCC(CNC(=O)Nc1cc(Cl)cc(Cl)c1)c1ccc(-c2c(F)cccc2F)cc1 (centres unmarked) [Example 102] | –

Row | Ki [1] | Ki [2] | SMILES | other results
19 | – | 501 to 2500 nM | Cc1ccc(C(CCN2CCC(NS(C)(=O)=O)C2)CNC(=O)Nc2cc(Cl)cc(Cl)c2)cc1 (centres unmarked) [Example 207] | –
20 | 501 to 2500 nM | – | CN(C)C1CCN(CCC(CNC(=O)Nc2cccc(C(F)(F)F)c2)c2ccc(Cl)c(Cl)c2)C1 (centres unmarked) [Example 306] | –
21 | – | 501 to 2500 nM | CN(C)CCC(CN1CCN(c2cc(Cl)cc(Cl)c2)C1=O)c1ccc(-c2cccc(C#N)c2)cc1 (centres unmarked) [Example 32, 4′-{1-[3-(3,5-Dichlorophemyl)-2-oxoimidazolidin-1-ylmethyl]-3-dimethylaminopropyl}-biphenyl-3-carbonitrile] | –
22 | 501 to 2500 nM | – | COc1ccc(C(CCN2CCCC2)CNC(=O)Nc2cc(C(F)(F)F)cc(C(F)(F)F)c2)cc1 (centres unmarked) [Example 335] | –
23 | 51 to 500 nM | – | O=C(NCC(CCNCCc1ccc(O)cc1)c1ccc(Cl)c(Cl)c1)c1cc(C(F)(F)F)cc(C(F)(F)F)c1 (centres unmarked) [Example 392] | –
24 | 51 to 500 nM | – | CN(C)C1CCN(CCC(CNC(=O)Nc2ccc(Cl)c(Cl)c2)c2ccc(Cl)c(Cl)c2)C1 (centres unmarked) [Example 291] | –
25 | 501 to 2500 nM | – | CN(C)CCCNCCC(CNC(=O)Nc1cc(Cl)cc(Cl)c1)c1ccc(Cl)c(Cl)c1 (centres unmarked) [Example 304] | –
26 | 501 to 2500 nM | – | CN(CCC(CNC(=O)c1cc(C(F)(F)F)cc(C(F)(F)F)c1)c1ccc(Cl)c(Cl)c1)C1CCCCC1 (centres unmarked) [Example 408] | –
27 | – | 0.4 to 50 nM | CNCCC(CNC(=O)Nc1ccc(F)c(F)c1)c1ccc(-c2cccc(C#N)c2)cc1 (centres unmarked) [Example 44] | –
28 | – | 501 to 2500 nM | CN(C)CCC(OC(=O)Nc1cc(Cl)cc(Cl)c1)c1ccc(-c2cccnc2)cc1 (centres unmarked) [Example 42] | –
29 | 501 to 2500 nM | – | Cc1cccc(C(CCN2CCCC2)CNC(=O)Nc2cc(C(F)(F)F)cc(C(F)(F)F)c2)c1 (centres unmarked) [Example 338] | –
30 | 501 to 2500 nM | – | O=C(NCc1cc(C(F)(F)F)cc(C(F)(F)F)c1)C(CCNCCN1CCCC1)c1ccc(Cl)c(Cl)c1 (centres unmarked) [Example 380] | –
31 | 501 to 2500 nM | – | O=C(NCC(CCN1CCC(N2CCCCC2)CC1)c1ccc(F)c(F)c1)Nc1ccc(F)c(Cl)c1 (centres unmarked) [Example 378] | –
32 | 501 to 2500 nM | – | CN(C)CCCNCCC(CNC(=O)Nc1cc(C(F)(F)F)cc(C(F)(F)F)c1)c1cccc(Cl)c1 (centres unmarked) [Example 344] | –
33 | – | – | Cc1ccc(C(CCN2CCC(N3CCCCC3)CC2)CNC(=O)Cc2ccc(Cl)c(Cl)c2)cc1 (centres unmarked) [Example 451] | Ki [3]: 501 to 2500 nM
34 | 51 to 500 nM | – | O=C(NCC(CCNC1CCCC1)c1ccc(-c2ccc(F)cc2)cc1)Nc1cc(Cl)cc(Cl)c1 (centres unmarked) [Example 243] | –
35 | – | – | O=C(NCc1cc(C(F)(F)F)cc(C(F)(F)F)c1)C(CCN1CCC(N2CCCCC2)CC1)c1ccc(Cl)c(Cl)c1 (centres unmarked) [Example 457] | Ki [3]: 501 to 2500 nM
